Here are results for 25 molecules from ChEMBL document CHEMBL1201862, “PubChem BioAssay data set” (2004).

Among the test systems are HOP-18; SNB-78; M19-MEL; DLD-1; LXFL 529; KM-20L2; XF498; DMS-114; RXF 631.
Test in all cases: NCI tumour cell line growth inhibition, 48 h

Each structure is given as a SMILES string.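 Compound exposure: 48 hours, 5 concentrations, 96-well plates. GI50 marks 50% less growth.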 Active and inactive are the calls of the source. Rule as the data show it: active = GI50 up to about 1.1 µM and inactive = higher. Bounds are passed on as bounds.

In the case of `CCOC(OCC)C(CC)[Se]c1ccccc1[N+](=O)[O-]` (stereo not drawn), the GI50 in the assay with HOP-18 was 11.8 µM (inactive); in the assay with SNB-78, 7.76 µM (inactive); in the assay with M19-MEL, 4.42 µM (inactive); with DLD-1 it was 3.1 µM (inactive); with LXFL 529, 4.39 µM (inactive); with KM-20L2 it was 1.96 µM (inactive). For the same molecule, the GI50 in the assay on XF498 is 2.92 µM (inactive).
`O=C(Nc1ccccc1)N1C(c2ccccc2)=N[C@@H](c2ccccc2)[C@@H]1c1ccccc1`: the GI50 is 18.9 µM (inactive) in the assay with HOP-18; 33.7 µM (inactive) in the assay with SNB-78; 19.5 µM (inactive) in the assay on M19-MEL; 14.7 µM (inactive) in the assay with DMS-114; 15.1 µM (inactive) with DLD-1; 35.2 µM (inactive) in the assay on RXF 631. In addition, the results for the GI50 in the assay with LXFL 529 and in the assay on KM-20L2 were 15.6 µM (inactive) and 18.1 µM (inactive), respectively.
Take `On1c(-c2ccccc2)c(-c2c(-c3ccccc3)n(O)c3ccccc23)c2ccccc21`: the GI50 in the assay on HOP-18 is 26.1 µM (inactive); with SNB-78 it was 35.7 µM (inactive); in the assay on M19-MEL, 11.2 µM (inactive); in the assay on DMS-114, 24.7 µM (inactive); in the assay on DLD-1, 54.6 µM (inactive); in the assay with LXFL 529, 3.18 µM (inactive). The GI50 with XF498 is 19.8 µM (inactive).
As to `O=P(Oc1ccc2ccccc2c1)(N1CC1)N1CC1`, the GI50 with HOP-18 is 22.6 µM (inactive); with SNB-78 it was > 100 µM (inactive); in the assay on M19-MEL it was 13.5 µM (inactive); in the assay on DMS-114, 38.4 µM (inactive); in the assay on DLD-1, 92.3 µM (inactive); with LXFL 529, > 100 µM (inactive). For the same molecule, the values for the GI50 in the assay with KM-20L2 and with XF498 were > 100 µM (inactive) and 17.7 µM (inactive), respectively.
Take `Cc1ccccc1C(CCCO)C(=O)O` (stereo not drawn): the GI50 with SNB-78, with M19-MEL, in the assay with DMS-114, in the assay with DLD-1, in the assay on LXFL 529 and in the assay with XF498 was > 100 µM (inactive) each time.
Regarding `COC(=O)C1=C(C(=O)OC)C23CC4CCC2(C(=O)C1O3)C4(C)C` (stereo not drawn), the GI50 in the assay with HOP-18 is 95.9 µM (inactive); with M19-MEL, > 100 µM (inactive); in the assay on DLD-1, 57.1 µM (inactive); in the assay on LXFL 529 it was > 100 µM (inactive); in the assay on KM-20L2 it was > 100 µM (inactive); in the assay on XF498, > 100 µM (inactive).
`N#CC(NNC(=O)c1ccccc1O)c1ccccc1` (stereo not drawn): the GI50 was 12.6 µM (inactive) with HOP-18; 0.9 µM (active) in the assay with SNB-78; 1.32 µM (inactive) with M19-MEL; 0.721 µM (active) in the assay with DMS-114; 2.63 µM (inactive) in the assay with DLD-1; 0.652 µM (active) in the assay on LXFL 529. Also, the GI50 in the assay with KM-20L2 is 22 µM (inactive).
Consider `CCN(CC)CCNC(=O)c1nn(C)c(=S)[nH]c1=S`, for which the GI50 in the assay with HOP-18, in the assay on SNB-78, in the assay on M19-MEL, in the assay on DMS-114, in the assay with DLD-1 and in the assay with LXFL 529 was > 100 µM (inactive) throughout. Moreover, the GI50 in the assay with KM-20L2 and in the assay on XF498 was > 100 µM (inactive) in each case.
`O=C1C2=C(C(c3ccccc3)=C1c1ccccc1)c1ccccc1C1(c3ccccc3)C2=C(O)C(c2ccccc2)=C1c1ccccc1` (stereo not drawn): the GI50 in the assay with HOP-18, with SNB-78, in the assay with M19-MEL, with DMS-114, in the assay on DLD-1 and in the assay with RXF 631 was > 100 µM (inactive) throughout. For the same molecule, the GI50 with LXFL 529 and in the assay with KM-20L2 was > 100 µM (inactive) throughout.
Regarding `CN(C)CC/C(=N\Nc1ccc([N+](=O)[O-])cc1)c1ccccc1`, the GI50 is 7.62 µM (inactive) in the assay on HOP-18; 4.4 µM (inactive) in the assay on SNB-78; 5.14 µM (inactive) in the assay on DMS-114; 13.3 µM (inactive) in the assay on DLD-1; 5.83 µM (inactive) in the assay with LXFL 529; 4.33 µM (inactive) in the assay with KM-20L2.
Regarding `CC[n+]1c(/C=C/c2ccc(N(CCCl)CCCl)cc2)ccc2cc(I)ccc21`, the GI50 in the assay on HOP-18 was 1.02 µM (active); in the assay with SNB-78, 0.895 µM (active); with M19-MEL, 0.608 µM (active); in the assay with DMS-114, 0.607 µM (active); in the assay with DLD-1, 1.58 µM (inactive); in the assay with RXF 631, 1.77 µM (inactive). Also, the GI50 in the assay on LXFL 529 is 0.409 µM (active); with KM-20L2 it was 1.02 µM (active).
Consider `N#Cc1c2c(c(N=P(c3ccccc3)(c3ccccc3)c3ccccc3)n3c1nc1ccccc13)CCCC2`, for which the GI50 in the assay with HOP-18 is 25.9 µM (inactive); in the assay on SNB-78 it was 21.3 µM (inactive); with M19-MEL, 18 µM (inactive); with DMS-114, 21.5 µM (inactive); in the assay with DLD-1 it was 32.8 µM (inactive); with RXF 631, 29 µM (inactive). For the same molecule, the GI50 in the assay with LXFL 529 was 20.6 µM (inactive); in the assay on KM-20L2, 17.4 µM (inactive).
With `O=C(/C=C/c1ccccc1)NC1C=Nc2ccc(Cl)cc2NC1=O` (stereo not drawn), the GI50 was 20.7 µM (inactive) in the assay on HOP-18; 53.7 µM (inactive) in the assay with SNB-78; 23 µM (inactive) in the assay with M19-MEL; 5.66 µM (inactive) with DMS-114; 20.8 µM (inactive) in the assay with DLD-1; 19.5 µM (inactive) with RXF 631. Moreover, the GI50 is 23.9 µM (inactive) with LXFL 529, 26 µM (inactive) in the assay on KM-20L2 and 13.3 µM (inactive) with XF498.
Turning to `C[C@]12CC[C@H](O)CC1=CC[C@@H]1C2CC[C@]2(C)Nc3c(cnn3-c3ccccc3)CC12` (stereo partly drawn), the GI50 was 8.2 µM (inactive) in the assay with SNB-78; 5.35 µM (inactive) in the assay on M19-MEL; 2.82 µM (inactive) in the assay with DMS-114; 3.52 µM (inactive) in the assay on DLD-1; 0.44 µM (active) with RXF 631; 4.06 µM (inactive) in the assay with LXFL 529. Moreover, the GI50 with KM-20L2 was 1.38 µM (inactive).
Take `CCCCCC/C=C/CCCCCCCc1cccc(O)c1C(=O)O`: the GI50 in the assay on HOP-18 is 48.4 µM (inactive); in the assay on SNB-78, > 100 µM (inactive); in the assay on M19-MEL, > 100 µM (inactive); in the assay on DMS-114, > 100 µM (inactive); in the assay on DLD-1 it was 43.6 µM (inactive); in the assay on RXF 631, > 100 µM (inactive). In addition, the GI50 was 45.4 µM (inactive) with LXFL 529, > 100 µM (inactive) in the assay with KM-20L2 and > 100 µM (inactive) in the assay on XF498.
On to `COC(=O)N/N=C(\Cc1ccccc1)CN(C)C`, for which the GI50 in the assay with SNB-78, in the assay on M19-MEL, in the assay on DMS-114, with DLD-1, in the assay on RXF 631 and in the assay on LXFL 529 was > 100 µM (inactive) throughout. For the same molecule, the GI50 in the assay with KM-20L2 and in the assay with XF498 was > 100 µM (inactive) each time.
For the molecule `O=C(COC(=O)c1cccc2c(=O)c3ccccc3[nH]c12)Nc1ccc(C(=O)O)cc1`, the GI50 was > 100 µM (inactive) in the assay on HOP-18; 59.3 µM (inactive) with SNB-78; > 100 µM (inactive) in the assay on M19-MEL; 61.8 µM (inactive) in the assay on DMS-114; > 100 µM (inactive) in the assay on DLD-1; > 100 µM (inactive) in the assay with RXF 631. Further, the results for the GI50 with KM-20L2 and in the assay on XF498 were > 100 µM (inactive) and 29.6 µM (inactive), respectively.
Consider `CC(C)(C)CC(C)(C)c1cc2c(O)c(c1)Cc1cc(C(C)(C)CC(C)(C)C)cc(c1O)Cc1cc(C(C)(C)CC(C)(C)C)cc(c1O)Cc1cc(C(C)(C)CC(C)(C)C)cc(c1O)Cc1cc(C(C)(C)CC(C)(C)C)cc(c1O)Cc1cc(C(C)(C)CC(C)(C)C)cc(c1O)C2`, for which the GI50 in the assay on SNB-78, in the assay with M19-MEL, in the assay with DMS-114, in the assay with DLD-1, in the assay with RXF 631 and in the assay on LXFL 529 was > 100 µM (inactive) each time. The GI50 with KM-20L2 and in the assay with XF498 was > 100 µM (inactive) in each case.
Regarding `O=C(/C=C\c1cccc2ccccc12)c1cccc2ccccc12`, the GI50 with HOP-18 is > 10 µM (inactive); in the assay on SNB-78 it was > 10 µM (inactive); in the assay with M19-MEL, 11.4 µM (inactive); in the assay on DMS-114 it was 5.51 µM (inactive); in the assay on DLD-1 it was 5.43 µM (inactive); with RXF 631 it was 7.89 µM (inactive). Further, the GI50 in the assay with LXFL 529 is 9.38 µM (inactive); in the assay on KM-20L2, 9.55 µM (inactive); in the assay on XF498, 7.57 µM (inactive).
Consider `O=c1cc2n(c(=O)[nH]1)C1OC(C(O)C1O)[C@@H]2CCO` (stereo partly drawn), for which the GI50 in the assay with SNB-78, in the assay on M19-MEL, in the assay with DMS-114, with DLD-1, with LXFL 529 and in the assay on KM-20L2 was > 100 µM (inactive) each time.
Consider `O=C1Oc2cc3c(c4cccc1c24)OCN(c1ccc(Cl)cc1)C3`, for which the GI50 in the assay with HOP-18 is 34 µM (inactive); in the assay with SNB-78, > 100 µM (inactive); in the assay with M19-MEL, 14.4 µM (inactive); with DMS-114, 5.9 µM (inactive); with DLD-1, 5.42 µM (inactive); in the assay on LXFL 529, 0.622 µM (active). In the assay with XF498, the GI50 was 16.7 µM (inactive).
For `COC(=O)C1CC2(CC3=C1CCCC3)OCCO2` (stereo not drawn), the GI50 in the assay on SNB-78, with M19-MEL, in the assay on DMS-114, with DLD-1, with RXF 631 and in the assay with LXFL 529 was > 100 µM (inactive) in each case. The GI50 in the assay with XF498 was > 100 µM (inactive).
For `COc1cc(CC(=O)O)c([N+](=O)[O-])cc1OC`, the GI50 in the assay on SNB-78, in the assay on M19-MEL, with DMS-114, in the assay with DLD-1, in the assay on RXF 631 and in the assay on LXFL 529 was > 100 µM (inactive) throughout. The GI50 with KM-20L2 was > 100 µM (inactive).
For `CCOC(=O)c1ccc(N2C(=O)/C(=C\OC)c3ccccc3C2=O)cc1`, the GI50 with SNB-78 is 43.7 µM (inactive); in the assay with M19-MEL, 75.2 µM (inactive); in the assay on DMS-114 it was 31.5 µM (inactive); in the assay with LXFL 529, 23.6 µM (inactive); in the assay with KM-20L2 it was 37 µM (inactive).
For the molecule `CC(O)C1OC(n2ccc(=O)[nH]c2=O)CC1n1cncn1` (stereo not drawn), the GI50 with M19-MEL, in the assay on DMS-114, with DLD-1, in the assay with LXFL 529, in the assay on KM-20L2 and in the assay with XF498 was > 100 µM (inactive) throughout.
